The values below come from BindingDB's records for doi:10.1021/acs.jnatprod.5b00540 (Toyama Prefectural University, 2015).

Numbered stars: 1 amine (or outer) side, 2 acyl side, 3 side chain; on linkers, the order of the positions; unused ones are H or OH. Bridge positions count the residues as written; N and C are the ends. Square brackets hold non-standard residues; d marks the D form. Peptide text beside a SMILES is read from it. * marks the point of attachment. Cinnamoyl(2-(1Z-pentenyl)) = CCC/C=C\c1ccccc1/C=C/C(=O)*; X1 = CN(/C(=C/c1ccc(O)cc1)C(=O)[*:2])[*:1]; aThr = C[C@H](O)[C@H](N)C(=O)O

For the assay, the target named is T1, Accessory gene regulator protein A (Staphylococcus aureus, UniProt P0A0I7).
T1 sequence (P0A0I7 whole entry): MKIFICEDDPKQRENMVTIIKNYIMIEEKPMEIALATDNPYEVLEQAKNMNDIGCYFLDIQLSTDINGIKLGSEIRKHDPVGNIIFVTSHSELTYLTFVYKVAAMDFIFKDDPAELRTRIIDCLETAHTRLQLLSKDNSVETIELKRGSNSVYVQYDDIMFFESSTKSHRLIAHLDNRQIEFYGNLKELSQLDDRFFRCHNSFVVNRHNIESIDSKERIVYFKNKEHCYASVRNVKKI
The assay is described as follows: Inhibition of agr-mediated quorum sensing in Staphylococcus aureus after 5 hrs by luminescence analysis.

The IC50 is the concentration at which inhibition is half-maximal. Low values mean greater potency in that assay, high ones weaker potency in that assay.

On to `CCC/C=C\c1ccccc1/C=C/C(=O)N[C@@H]1C(=O)N(C)/C(=C/c2ccc(O)cc2)C(=O)N[C@@H](CC(C)C)C(=O)N[C@H](Cc2ccccc2)C(=O)N[C@@H]([C@H](C)O)C(=O)N[C@@H](CC(N)=O)C(=O)N[C@@H](CO)C(=O)O[C@@H]1C` ({Cinnamoyl(2-(1Z-pentenyl))}-T[X1]L[dF][aThr]NS; ester 1-C), for which the IC50 is 2500 nM.

For `C[C@H]1NC(=O)[C@@H](Cc2ccccc2)N(C)C(=O)[C@@H]2CCCN2C(=O)c2ccccc2NC(=O)[C@H](Cc2ccccc2)NC1=O`, the midpoint of inhibition, the IC50, lay at 4400 nM. Against the preceding molecule, the IC50 is about 1.8-fold higher.

`CC(C)[C@@H]1NC(=O)C[C@H](/C=C/c2ccccc2)OC(=O)[C@H](C(C)C)NC(=O)[C@H](C(C)C)NC(=O)[C@@H](C)NC1=O` had an IC50 of 300 nM.

On to `CC[C@H](C)[C@@H]1NC(=O)[C@@H](C)NC(=O)[C@H](C(C)C)NC(=O)C[C@H](/C=C/c2ccccc2)OC(=O)[C@H](C(C)C)NC1=O` [CHEBI:67522], for which the 50% inhibitory concentration (IC50) came to 800 nM.
